Data from article PMC2008813 (British Journal of Cancer, 1973).
Blank lines part the entries; values can stand above or below the molecule they belong to.

How the values were obtained:
glucocorticoid receptor [1] = target: T1, glucocorticoid receptor (Rattus norvegicus, UniProt P06536); assay: competition with [3H]-triamcinolone acetonide, sucrose gradient centrifugation (weak; no effect at […]); conditions: read-out: % [3H]-triamcinolone acetonide bound at 5 umol/l
T1 construct: gene Nr3c1; native receptor in R3230AC tumour cytosol (8-9 S component)
T1 sequence (P06536 1-795): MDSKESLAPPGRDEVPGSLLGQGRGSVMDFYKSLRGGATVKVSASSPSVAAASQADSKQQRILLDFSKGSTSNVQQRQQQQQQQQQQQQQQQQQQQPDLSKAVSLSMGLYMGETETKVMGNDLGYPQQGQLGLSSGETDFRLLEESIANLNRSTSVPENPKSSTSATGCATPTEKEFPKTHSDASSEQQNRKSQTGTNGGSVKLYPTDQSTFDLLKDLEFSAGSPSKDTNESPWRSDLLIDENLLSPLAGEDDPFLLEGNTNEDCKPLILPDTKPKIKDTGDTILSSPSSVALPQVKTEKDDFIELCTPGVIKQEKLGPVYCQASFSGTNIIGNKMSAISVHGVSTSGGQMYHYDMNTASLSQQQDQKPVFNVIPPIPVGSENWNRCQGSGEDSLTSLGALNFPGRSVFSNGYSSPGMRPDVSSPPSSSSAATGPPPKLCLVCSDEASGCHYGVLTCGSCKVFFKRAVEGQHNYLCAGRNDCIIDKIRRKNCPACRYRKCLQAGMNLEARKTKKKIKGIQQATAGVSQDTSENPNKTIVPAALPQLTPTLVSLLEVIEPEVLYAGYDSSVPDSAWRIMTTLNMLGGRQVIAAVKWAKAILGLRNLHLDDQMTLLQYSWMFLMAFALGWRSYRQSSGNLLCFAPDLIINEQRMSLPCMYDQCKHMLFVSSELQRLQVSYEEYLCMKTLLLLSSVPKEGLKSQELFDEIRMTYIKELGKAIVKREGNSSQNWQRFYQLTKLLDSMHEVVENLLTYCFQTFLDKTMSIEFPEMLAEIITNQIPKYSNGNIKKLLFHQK

glucocorticoid receptor [2] = target: T1, glucocorticoid receptor; assay: competition with [3H]-triamcinolone acetonide, sucrose gradient centrifugation; conditions: read-out: % [3H]-triamcinolone acetonide bound at 1 umol/l
glucocorticoid receptor [3] = target: T1, glucocorticoid receptor; assay: as above; conditions: read-out: % [3H]-triamcinolone acetonide bound at 5 umol/l

Compound: C[C@]12CC[C@@H]3c4ccc(O)cc4CC[C@H]3[C@@H]1CC[C@@H]2O [Oestradiol-17β]
- activity at 5 µM (glucocorticoid receptor [1]): 45%

- activity at 1 µM (glucocorticoid receptor [2]): 14%
Compound: C[C@]12C=CC(=O)C=C1CC[C@H]1[C@@H]3C[C@@H](O)[C@](O)(C(=O)CO)[C@@]3(C)C[C@H](O)[C@@]12F [Triamcinolone]

- activity at 5 µM (glucocorticoid receptor [3]): 25%
Compound: C[C@]12CCC(=O)C=C1CC[C@@H]1[C@@H]2CC[C@@]2(C)[C@H]1CC[C@]2(O)C(=O)CO [cortexolone]
